Results: article PMC7346113, “Screening of Natural Stilbene Oligomers from Vitis vinifera for Anticancer Activity on Human Hepatocellular Carcinoma Cells” (Antioxidants, 2020)

Key:
Type in all cases: cell-based, human
HH4 = assay: Cell viability, crystal violet assay, HH4 non-transformed hepatocytes; details: Homo sapiens, Hepatocyte, mean ± standard error
Description: (§1) The human hepatoma cell line HepG2 was obtained from the American Tissue Culture Collection (ATCC, Manassas, VA, USA). The human hepatoma cell line Hep3B was obtained from the European Collection of Authenticated Cell Cultures (ECACC, Porton Down, Salisbury, Wiltshire, UK). HH4 non-transformed human hepatocyte cell line (kindly provided by Dr. I. Fabregat, Molecular Oncology, Bellvitge Biomedical Research Institute, Spain) was established as described.
(§2) HepG2 and Hep3B cell lines were maintained in Eagle’s Minimum Essential Medium and HH4 cell line was grown in Ham´s F12 Nutrient Mixture (Sigma-Aldrich, St Louis, MO, USA). Both culture media were supplemented with 10% heat inactivated fetal bovine serum, 2 mM L-glutamine and antibiotics (0.1 mg/mL streptomycin and 100 U/mL penicillin) (Sigma-Aldrich, St Louis, MO, USA). Cell cultures were grown in an incubator at 37 °C with 5% CO2 atmosphere. After reaching approximately 80% of confluence, cells were detached in a solution of 0.1% trypsin and 0.04% EDTA and plated as required for further experiments.
(§3) Cell lines were seeded into 96-well plates at 5 × 10^3 (HepG2) and 3 × 10^3 (Hep3B and HH4) cells/well 24 h before treatment. Increasing concentrations of the monomer trans-resveratrol, the dimers ampelopsin A and trans-ε-viniferin and the tetramers isohopeaphenol, hopeaphenol, R2-viniferin and R-viniferin were then added and cells were incubated for 24, 48, and 72 h. Stilbenes were dissolved in dimethyl sulfoxide (DMSO), Sigma-Aldrich, St Louis, MO, USA) at a final concentration of 0.01%. The same amount of DMSO was added to control cells. After treatment, the cell viability was determined using the crystal violet assay. The absorbance was recorded at 590 nm in a Synergy HT microplate reader (BioTek, Winooski, VT, USA). Cell viability was calculated as the percentage of viable cells treated with stilbene versus untreated control cells using the following equation: Cell viability (%) = [OD (Treatment) − OD (Blank)]/[OD (Control) − OD (Blank)] × 100. The cytotoxic effect of stilbenes was determined by calculating IC50 values using non-linear regression analysis (GraphPad Prism 6, San Diego, CA, USA).
(§4) The statistical package SPSS 19.0 (SPSS Inc. Chicago, IL, USA) was used for data analysis. The results were expressed as mean ± standard error (SE) from at least three experiments. Statistical significance for the differences of the means was estimated by parametric Student’s t-test. Differences between means were considered statistically significant for p < 0.05. IC50 values were derived from fitting the data to a sigmoidal dose-response curve with a three-parameter logistic model using Graph Pad Prism 6.

Hep3B = assay: Cell cycle analysis by flow cytometry (propidium iodide), Hep3B; details: 10 µM; for Cell cycle G0/G1 (percentage of cells) / Cell cycle G2/M (percentage of cells) / Cell cycle S (percentage of cells) / SubG0 (percentage of total cells): mean ± SE
Method: (§5) Exponentially growing cells were seeded in 6-wells plates (200,000 cells HepG2 and 180,000 cells Hep3B) 24 h before R2-viniferin treatment. On the day of treatment, the culture medium was replaced with culture medium containing R2-viniferin or vehicle solution (control).
(§6) After a treatment, cells were detached by trypsinization and fixed overnight at 4 °C in 70% ice-cold ethanol diluted in phosphate buffer saline (PBS). The ethanol was then discarded and the cells were washed with ice-cold PBS and finally stained with 25 μg/mL of propidium iodide (Sigma-Aldrich, St Louis, MO, USA) in the presence of 200 μg/mL ribonuclease A (Roche Biochemicals, Indianapolis, IN, USA) for 30 min at room temperature in the dark. Flow cytometry analysis (Beckman Coulter Gallios) was carried out from a total number of 10,000 events acquired in the General Research Services SGIker of the UPV/EHU. Analysis of the data was performed using Summit 4.3 software (Dako, Glostrup, Hovedstaden, Denmark).

[1] = system: caspase-3 activity in HepG2; assay: Caspase-3 activity, Ac-DEVD-AMC fluorogenic substrate
Method: The activity of caspase-3 was measured using the specific synthetic tetrapeptide fluorogenic substrate Ac-DEVD-AMC (BD Pharmigen Biosciences, San Diego, CA, USA). The assay was carried out in 96-well plates in a total volume of 100 µL, with 37 μM of the substrate and 50 µg of protein in the assay medium in 100 mM HEPES, pH 7.4, containing 200 mM NaCl, 0.2% CHAPS, 2 mM EDTA, 20% glycerol, and 5 mM dithiothreitol (DTT).
In the presence of caspase-3, the Ac-DEVD-AMC substrate is hydrolyzed and the fluorogenic compound AMC is released. The activity was determined by continuous recording of the fluorescence at λex = 360 nm and λem = 460 nm at 37 °C for 2 h every 5 min in a Synergy HT microplate reader (BioTek, Winooski, VT, USA). Results were expressed as the percentage of the fluorescence in control cells.

HepG2 [2] = assay: Cell cycle analysis by flow cytometry (propidium iodide), HepG2; details: HepG2, 10 µM, mean ± SE
Method: as §5, §6

HepG2 [3] = assay: Cell viability, crystal violet assay, HepG2; details: mean ± standard error
Description: as §1, §2, §3, §4

SMILES: Oc1ccc([C@H]2c3c(O)cc(O)cc3[C@H]3c4c(cc(O)cc4[C@@H]2c2cc(/C=C/c4cc(O)cc5c4[C@H](c4cc(O)cc(O)c4)[C@@H](c4ccc(O)cc4)O5)ccc2O)O[C@@H]3c2ccc(O)cc2)cc1 [R2-Viniferin]
- IC50 (HH4; 24 h): > 200 µM
- IC50 (HH4; 48 h): > 200 µM
- IC50 (HH4; 72 h): > 200 µM
- Effect on cell cycle (Hep3B): did not alter cell cycle
- Cell cycle G0/G1 (percentage of cells) (Hep3B; 24 h): 63.6 ± 8.0%
- Cell cycle G2/M (percentage of cells) (Hep3B; 24 h): 20.7 ± 6.1%
- Cell cycle S (percentage of cells) (Hep3B; 24 h): 15.7 ± 3.7%
- SubG0 (percentage of total cells) (Hep3B; 24 h): 2.0 ± 0.6%
- Cell cycle G0/G1 (percentage of cells) (Hep3B; 48 h): 73.7 ± 3.4%
- Cell cycle G2/M (percentage of cells) (Hep3B; 48 h): 16.5 ± 2.0%
- Cell cycle S (percentage of cells) (Hep3B; 48 h): 10.4 ± 1.6%
- SubG0 (percentage of total cells) (Hep3B; 48 h): 1.8 ± 0.4%
- Cell cycle G0/G1 (percentage of cells) (Hep3B; 72 h): 75.5 ± 3.9%
- Cell cycle G2/M (percentage of cells) (Hep3B; 72 h): 14.7 ± 2.9%
- Cell cycle S (percentage of cells) (Hep3B; 72 h): 9.8 ± 1.2%
- SubG0 (percentage of total cells) (Hep3B; 72 h): 3.3 ± 0.7%
- Effect on caspase-3 activity ([1]; HepG2, 5 µM): increased caspase-3 activity at 72 h
- Effect on caspase-3 activity ([1]; HepG2, 10 µM): increased the caspase-3 activity significantly from 24 h to 72 h
- Cell cycle G0/G1 (percentage of cells) (HepG2 [2]; 24 h): 65.6 ± 11.7%
- Cell cycle G2/M (percentage of cells) (HepG2 [2]; 24 h): 22.5 ± 8.5%
- Cell cycle S (percentage of cells) (HepG2 [2]; 24 h): 11.9 ± 3.2%
- SubG0 (percentage of total cells) (HepG2 [2]; 24 h): 8.5 ± 2.7%
- Cell cycle G0/G1 (percentage of cells) (HepG2 [2]; 48 h): 71.7 ± 10.9%
- Cell cycle G2/M (percentage of cells) (HepG2 [2]; 48 h): 19.3 ± 6.5%
- Cell cycle S (percentage of cells) (HepG2 [2]; 48 h): 9.0 ± 4.5%
- SubG0 (percentage of total cells) (HepG2 [2]; 48 h): 22.4 ± 11.0%
- Cell cycle G0/G1 (percentage of cells) (HepG2 [2]; 72 h): 75.5 ± 7.8%
- Cell cycle G2/M (percentage of cells) (HepG2 [2]; 72 h): 15.0 ± 2.2%
- Cell cycle S (percentage of cells) (HepG2 [2]; 72 h): 9.5 ± 5.6%
- SubG0 (percentage of total cells) (HepG2 [2]; 72 h): 71.0 ± 2.1%
- IC50 (HepG2 [3]; 72 h): 9.7 ± 0.4 µM
- IC50 (HepG2 [3]; Homo sapiens, HepG2, 24 h, 24 h): > 200 µM
- IC50 (HepG2 [3]; Homo sapiens, HepG2, 48 h, 48 h): 10.2 ± 8.2 µM
- IC50 (HepG2 [3]; Homo sapiens, HepG2, 72 h, 72 h): < 10 µM
